Assays:
[1] = biological target: Bcl-2 (Homo sapiens, UniProt P10415); assay: Bcl-2 binding affinity analysis (fluorescence polarization binding assay)
Source text: (§1) Bcl-2 and Bcl-xL binding can be determined using a variety of known methods. One such assay is a sensitive and quantitative in vitro binding assay using fluorescence polarization (FP) described by Wang, J. -L.; Zhang, Z -J.; Choksi, S.; Sjam. S.; Lu, Z.; Croce, C. M.; Alnenri, E. S.; Komgold, R.; Huang, Z. Cell permeable Bcl-2 binding peptides: a chemical approach to apoptosis induction in tumor cells. Cancer Res. 2000, 60, 1498-1502).
(§2) Bcl-2 and Bcl-xL binding affinity analysis data is presented below for various compounds of the invention.

[2] = biological target: Bcl-xL (Homo sapiens, UniProt Q07817); assay: Bcl-xL binding affinity analysis (fluorescence polarization binding assay); design: scale not given here
Sequence of Bcl-xL (Q07817 whole entry): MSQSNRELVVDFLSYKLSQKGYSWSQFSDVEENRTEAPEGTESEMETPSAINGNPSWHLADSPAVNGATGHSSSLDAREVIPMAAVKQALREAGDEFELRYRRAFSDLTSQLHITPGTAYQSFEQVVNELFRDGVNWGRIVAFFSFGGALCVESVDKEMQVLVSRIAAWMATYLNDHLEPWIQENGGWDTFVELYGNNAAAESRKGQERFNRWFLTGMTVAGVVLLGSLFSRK
Source text: as §1, §2

Sequence of Bcl-2 (P10415 whole entry): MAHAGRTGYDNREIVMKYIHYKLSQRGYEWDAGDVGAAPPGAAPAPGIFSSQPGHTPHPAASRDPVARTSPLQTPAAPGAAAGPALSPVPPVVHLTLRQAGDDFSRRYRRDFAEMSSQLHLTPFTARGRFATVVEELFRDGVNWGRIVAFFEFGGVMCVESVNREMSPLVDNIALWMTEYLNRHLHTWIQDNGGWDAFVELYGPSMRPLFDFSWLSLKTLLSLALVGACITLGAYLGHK

Row | Compound | Ki [1] | Bcl-XL binding affinity Ki [2]
1 | C[C@@H]1[C@@H](NC(=O)[C@@H]2[C@H]([C@H](C)O)[C@H](CO)ON2Cc2cccc(C#CCNC(=O)NCc3ccccc3)c2)C[C@H]2C[C@@H]1C2(C)C [Compound 78] | 800 to 6000 nM | 
2 | COc1cccc(O)c1CN(Cc1cccc(CN2OC(CO)C(C(C)O)C2C(=O)NC2CC3CC(C2C)C3(C)C)c1)C(CC(C)C)CN(C)C (centres unmarked) [Compound 336] | < 800 nM | ♯
3 | CC(O)C1C(CO)ON(Cc2cccc(CNC(Cc3ccccc3)CN(C)C)c2)C1C(=O)NC1CC2CC(C1C)C2(C)C (centres unmarked) [Compound 467] | < 800 nM | ♯
4 | C[C@@H]1[C@@H](NC(=O)[C@@H]2C(CO)[C@H]([C@H](C)O)ON2Cc2cccc(C#CC(C)(O)c3ccccc3)c2)C[C@H]2C[C@@H]1C2(C)C (some centres unmarked) [Compound 35] | > 50000 nM | ♯
5 | C[C@@H]1[C@@H](NC(=O)[C@@H]2[C@H]([C@H](C)O)[C@H](CO)ON2Cc2cccc(-c3cccc(C(=O)NC[C@@H]4CCCN4C)c3)c2)C[C@H]2C[C@@H]1C2(C)C [Compound 104] | < 800 nM | ♯
6 | C[C@@H]1[C@@H](NC(=O)[C@@H]2[C@H]([C@H](C)O)[C@H](CO)ON2CCCCN(CCCc2ccccc2)CCN(C)C)C[C@H]2C[C@@H]1C2(C)C [Compound 545] | 800 to 6000 nM | ♯
7 | C[C@H](O)[C@@H]1[C@H](CO)ON(Cc2cccc(CN(CCN(C)C)Cc3ccccc3)c2)[C@@H]1C(=O)NCCc1c[nH]c2ccccc12 [Compound 516] | 6000 to 50000 nM | ♯
8 | Cc1cc(-c2cccc(CN3O[C@@H](CO)[C@@H]([C@H](C)O)[C@H]3C(=O)N[C@H]3C[C@H]4C[C@@H]([C@@H]3C)C4(C)C)c2)ccc1C(=O)N(C)C [Compound 150] | < 800 nM | ♯♯
9 | CC(O)C1C(CO)ON(Cc2cccc(C(=O)NCCc3ccccc3)c2)C1C(=O)NC1CC2CC(C1C)C2(C)C (centres unmarked) [Compound 503] | < 800 nM | ♯
10 | C[C@@H]1[C@@H](NC(=O)[C@@H]2[C@H]([C@H](C)O)[C@H](CO)ON2Cc2cccc(-c3ccc(C(=O)N4CCOCC4)cc3)c2)C[C@H]2C[C@@H]1C2(C)C [Compound 109] | < 800 nM | ♯
11 | C[C@@H]1[C@@H](NC(=O)[C@@H]2[C@H]([C@H](C)O)[C@H](CO)ON2Cc2cccc(-c3cccc(C(=O)N4CCN(C)CC4)c3)c2)C[C@H]2C[C@@H]1C2(C)C [Compound 129] | < 800 nM | ♯♯
12 | C[C@@H]1[C@@H](NC(=O)[C@@H]2[C@H]([C@H](C)O)[C@H](CO)ON2Cc2cccc(-c3cccc(C(=O)NCCc4c[nH]cn4)c3)c2)C[C@H]2C[C@@H]1C2(C)C [Compound 127] | < 800 nM | ♯♯
13 | C[C@@H]1[C@@H](NC(=O)[C@@H]2[C@H]([C@H](C)O)[C@H](CO)ON2Cc2cccc(-c3ccc(C(=O)N(C)C)cc3[N+](=O)[O-])c2)C[C@H]2C[C@@H]1C2(C)C [Compound 285] | < 800 nM | ♯
14 | CCNC(=O)c1cccc(-c2cccc(CN3O[C@@H](CO)[C@@H]([C@H](C)O)[C@H]3C(=O)N[C@H]3C[C@H]4C[C@@H]([C@@H]3C)C4(C)C)c2)c1 [Compound 122] | < 800 nM | ♯♯
15 | CC(O)C1C(CO)ON(Cc2cccc(CN3CCC(c4ccccc4)C3CN(C)C)c2)C1C(=O)NC1CC2CC(C1C)C2(C)C (centres unmarked) [Compound 450] | < 800 nM | ♯
16 | C[C@@H]1[C@@H](NC(=O)[C@@H]2[C@H]([C@H](C)O)[C@H](CO)ON2Cc2cccc(-c3cccc(C(=O)NCCN(C)C)c3)c2)C[C@H]2C[C@@H]1C2(C)C [Compound 107] | < 800 nM | ♯
17 | C[C@H](O)[C@@H]1[C@H](CO)ON(Cc2cccc(-c3cccc(NS(C)(=O)=O)c3)c2)[C@@H]1C(=O)NC1C[C@H]2C[C@@H]([C@@H]1C)C2(C)C (some centres unmarked) [Compound 181] | < 800 nM | ♯♯
18 | C[C@@H]1[C@@H](NC(=O)[C@@H]2[C@H]([C@H](C)O)[C@H](CO)ON2Cc2cccc(N3CCN(C(=S)NCCN4CCOCC4)CC3)c2)C[C@H]2C[C@@H]1C2(C)C [Compound 264] | < 800 nM | ♯
19 | C[C@@H]1[C@@H](NC(=O)[C@@H]2C([C@H](C)O)[C@H](CO)ON2Cc2cccc(CN(CCN(C)C)Cc3ccccc3N3CCCCC3)c2)C[C@H]2C[C@@H]1C2(C)C (some centres unmarked) [Compound 410] | < 800 nM | ♯
20 | COc1ccc(C(O)C#Cc2cccc(CN3O[C@H](CO)[C@H]([C@@H](C)O)[C@@H]3C(=O)NCCCN(C)c3ccccc3)c2)c(C)c1 (some centres unmarked) [Compound 247] | < 800 nM | ♯
21 | CSc1cccc(-c2cccc(CN3O[C@@H](CO)[C@@H]([C@H](C)O)[C@H]3C(=O)N[C@H]3C[C@H]4C[C@@H]([C@@H]3C)C4(C)C)c2)c1 [Compound 201] | < 800 nM | ♯
22 | CCN1CCC[C@H]1CNC(=O)c1cccc(-c2cccc(CN3O[C@@H](CO)[C@@H]([C@H](C)O)[C@H]3C(=O)N[C@H]3C[C@H]4C[C@@H]([C@@H]3C)C4(C)C)c2OC)c1 [Compound 156] | < 800 nM | ♯

Row | Compound | Ki [1] | Bcl-XL binding affinity Ki [2]
23 | C[C@@H]1[C@@H](NC(=O)[C@@H]2[C@H]([C@H](C)O)[C@H](CO)ON2Cc2cccc(-c3ccc(C(=O)N(CCN(C)C)Cc4ccccc4)cc3)c2)C[C@H]2C[C@@H]1C2(C)C [Compound 185] | < 800 nM | ♯
24 | C[C@@H]1[C@@H](NC(=O)[C@@H]2[C@H]([C@H](C)O)[C@H](CO)ON2Cc2cccc(-c3cccc(C(=O)N(C)CCCN(C)C)c3)c2)C[C@H]2C[C@@H]1C2(C)C [Compound 148] | < 800 nM | ♯
25 | C[C@@H]1[C@@H](NC(=O)[C@@H]2[C@H]([C@H](C)O)[C@H](CO)ON2Cc2cccc(-c3cccc([S+](C)[O-])c3)c2)C[C@H]2C[C@@H]1C2(C)C (some centres unmarked) [Compound 202] | < 800 nM | ♯
26 | C[C@H](O)[C@@H]1[C@H](CO)ON(Cc2cccc(CN(CCN(C)C)Cc3ccccc3)c2)[C@@H]1C(=O)NCCCc1ccccc1 [Compound 525] | 6000 to 50000 nM | ♯
27 | CC(C)CCN(CCN(C)C)Cc1cccc(CN2O[C@@H](CO)[C@@H]([C@H](C)O)[C@H]2C(=O)N[C@H]2C[C@H]3C[C@@H]([C@@H]2C)C3(C)C)c1 [Compound 207] | < 800 nM | ♯
28 | CC(O)C1C(CO)ON(Cc2cccc(CN(CCN(C)C)c3ccccc3)c2)C1C(=O)NC1CC2CC(C1C)C2(C)C (centres unmarked) [Compound 476] | < 800 nM | ♯
29 | C[C@H](O)[C@@H]1[C@H](CO)ON(Cc2cccc(C#C[C@]3(O)CC[C@H]4[C@@H]5CCc6cc(O)ccc6[C@H]5CC[C@@]43C)c2)[C@@H]1C(=O)NCCCN(C)c1ccccc1 [Compound 34] | > 50000 nM | ♯
30 | C[C@@H]1[C@@H](NC(=O)[C@@H]2[C@H]([C@H](C)O)[C@H](CO)ON2Cc2cccc(-c3ccc4c(c3)C(=O)N(C)C4=O)c2)C[C@H]2C[C@@H]1C2(C)C [Compound 128] | < 800 nM | ♯
31 | CC(C)[C@H](CN(C)C)NC(=O)c1cccc(-c2cccc(CN3O[C@@H](CO)[C@@H]([C@H](C)O)[C@H]3C(=O)N[C@H]3C[C@H]4C[C@@H]([C@@H]3C)C4(C)C)c2)c1 [Compound 103] | < 800 nM | ♯
32 | C[C@@H](O)[C@H]1[C@@H](CO)ON(Cc2cccc(C#CCNC(=O)c3ccccc3)c2)[C@H]1C(=O)NCCCCc1ccccc1 [Compound 64] | 800 to 6000 nM | ♯
33 | C[C@@H]1[C@@H](NC(=O)C2[C@H]([C@H](C)O)[C@H](CO)ON2Cc2cccc(C#CCNS(=O)(=O)c3ccc(-c4ccccc4)cc3)c2)C[C@H]2C[C@@H]1C2(C)C (some centres unmarked) [Compound 73] | 800 to 6000 nM | 
34 | C[C@@H](O)[C@H]1[C@@H](CO)ON(Cc2cccc(C#CCNS(=O)(=O)c3ccc(Oc4ccccc4)cc3)c2)[C@H]1C(=O)NCCCN(C)c1ccccc1 [Compound 72] | 6000 to 50000 nM | 
35 | C[C@@H](O)[C@H]1[C@@H](CO)ON(Cc2cccc(C#CCNC(=O)NC3CC3c3ccccc3)c2)[C@H]1C(=O)NCCCN(C)c1ccccc1 (some centres unmarked) [Compound 80] | 800 to 6000 nM | 
36 | C[C@@H]1[C@@H](NC(=O)[C@@H]2[C@H]([C@H](C)O)[C@H](CO)ON2Cc2cccc(C#CCNCc3ccccn3)c2)C[C@H]2C[C@@H]1C2(C)C [Compound 66] | 800 to 6000 nM | 
37 | C[C@@H](O)[C@H]1[C@@H](CO)ON(Cc2cccc(C#CCNC(=O)Nc3ccccc3)c2)[C@H]1C(=O)NCCCN(C)c1ccccc1 [Compound 79] | 800 to 6000 nM | 
38 | C[C@@H](O)[C@H]1[C@@H](CO)ON(Cc2cccc(C#CCNC(=O)NCc3ccccc3)c2)[C@H]1C(=O)NCCCN(C)c1ccccc1 [Compound 77] | 800 to 6000 nM | 
39 | C[C@@H]1[C@@H](NC(=O)[C@@H]2[C@H]([C@H](C)O)[C@H](CO)ON2Cc2cccc(C#CCNS(=O)(=O)c3ccccc3)c2)C[C@H]2C[C@@H]1C2(C)C [Compound 76] | 800 to 6000 nM | 
40 | C[C@@H](O)[C@H]1[C@@H](CO)ON(Cc2cccc(C#CCNS(=O)(=O)c3cccc4cccnc34)c2)[C@H]1C(=O)NCCCN(C)c1ccccc1 [Compound 75] | 800 to 6000 nM | 
41 | C[C@@H](O)[C@H]1[C@@H](CO)ON(Cc2cccc(C#CCNCc3ccc(-c4ccccc4)cc3)c2)[C@H]1C(=O)NCCCN(C)c1ccccc1 [Compound 71] | 6000 to 50000 nM | 
42 | C[C@@H]1[C@@H](NC(=O)[C@@H]2[C@H]([C@H](C)O)[C@H](CO)ON2Cc2cccc(C#CCNCc3c[nH]c4ccccc34)c2)C[C@H]2C[C@@H]1C2(C)C [Compound 68] | 800 to 6000 nM | 
43 | C[C@@H]1[C@@H](NC(=O)[C@@H]2[C@H]([C@H](C)O)[C@H](CO)ON2Cc2cccc(C#CCNS(=O)(=O)Cc3ccccc3)c2)C[C@H]2C[C@@H]1C2(C)C [Compound 74] | 800 to 6000 nM | 

Reference: US7851637B2, “Compounds and methods for inhibiting the interaction of BCL proteins with binding partners” (Infinity Pharmaceuticals, Inc., priority 2004, dated 2010)
